Source: US20140308357A1, “MELATONIN-BASED SOLUTIONS AND POWDERS FOR THEIR PREPARATION” (Eratech S.R.L., priority 2011, published 2014)
≈ marks a conversion by molar mass, not a printed value.

Assays:
[1] = Solubility of the powder for reconstitution (saturated solution, filtered, HPLC); type: physicochemical; details: thermodynamic from solid
Procedure: Following the preparation of a saturate solution of the powders obtained, the same solution was filtered with a […] membrane and the filtered solution obtained was analysed by HPLC according to the method described previously.

[2] = Dissolution speed of the powder for reconstitution in water/PEG-400 (80/20); type: physicochemical; details: 25° C.
Procedure: The entire test was conducted in temperature conditions of 25° C.
After 1 minute of manual stirring the two solutions were left to settle for 1 minute.
After 1 minute of sedimentation, the supernatant solution was sampled by taking 1 ml of it and analysing it according to the HPLC method described previously.

[3] = Osmolality and pH of solutions for administration in Water/PEG 400; type: physicochemical
[4] = cited from earlier work
[5] = Water/PEG 400 ratio 70/30, melatonin 18 mg/ml
[6] = Water/PEG 400 ratio 75/25, melatonin 14 mg/ml
[7] = Water/PEG 400 ratio 80/20, melatonin 10 mg/ml
[8] = Water/PEG 400 ratio 85/15, melatonin 7 mg/ml
[9] = Water/PEG 400 ratio 90/10, melatonin 5 mg/ml

For `COc1ccc2[nH]cc(CCNC(C)=O)c2c1` [Melatonin raw material, Melatonin], the solubility ([1]; purified water, water, Water (Table 3a)) was 1.8 mg/mL (≈ 7.75 mM), the solubility ([1]; purified water, water, Water (Table 3b)) was 1.7 mg/mL (≈ 7.32 mM) and the solubility ([1]; water/PEG-200 (75/25), aqueous with cosolvent or surfactant or cyclodextrin, Water-PEG 75/25, PEG 200) was 10.5 mg/mL (≈ 45.2 mM). It also gave a solubility ([1]; water/PEG-350 (75/25), aqueous with cosolvent or surfactant or cyclodextrin, Water-PEG 75/25, PEG 350) of 16.9 mg/mL (≈ 72.8 mM), a solubility ([1]; water/PEG-400 (75/25), aqueous with cosolvent or surfactant or cyclodextrin, Water-PEG 75/25, PEG 400) of 14.5 mg/mL (≈ 62.4 mM) and a solubility ([1]; water/PEG-400 (80/20), aqueous with cosolvent or surfactant or cyclodextrin, Water-PEG-400 ratio 80-20) of 11.1 mg/mL. For the same compound, the solubility ([1]; water/PEG-400 (90/10), aqueous with cosolvent or surfactant or cyclodextrin, Water-PEG-400 ratio 90-10) was 5 mg/mL, the solubility ([1]; water/ethanol (70/30), aqueous with cosolvent or surfactant or cyclodextrin, Water-Ethanol ratio 70-30) was 19.7 mg/mL and the solubility ([1]; water/ethanol (75/25), aqueous with cosolvent or surfactant or cyclodextrin, Water-Ethanol ratio 75-25) was 14.2 mg/mL. The solubility ([1]; water/ethanol (80/20), aqueous with cosolvent or surfactant or cyclodextrin, Water-Ethanol ratio 80-20) was 8.2 mg/mL, the solubility ([1]; water/ethanol (90/10), aqueous with cosolvent or surfactant or cyclodextrin, Water-Ethanol ratio 90-10) was 3.7 mg/mL and the “Visual inspection of the preparation” value ([2]; 30 mg melatonin in 3 ml water/PEG-400 (80/20), 1 minute manual stirring, after 1 minute settling) was “presence of undissolved particulate”. The “Concentration of melatonin in the supernatant solution” value ([2]; 30 mg melatonin in 3 ml water/PEG-400 (80/20), 1 minute stirring and 1 minute sedimentation) was 7100 µg/mL, the “Concentration of melatonin in solution” value ([2]; water/PEG-400 (80/20), after 10 minutes of stirring) was 7900 µg/mL and the Osmolality [3, 5] was 1310 mOsm/Kg. It also gave a pH [3, 5] of 5.2, an Osmolality [3, 6] of 1014 mOsm/Kg and a pH [3, 6] of 5.2. The Osmolality [3, 7] was 754 mOsm/Kg, the pH [3, 7] was 5.2 and the Osmolality [3, 8] was 530 mOsm/Kg. The pH [3, 8] was 5.2, the Osmolality [3, 9] was 335 mOsm/Kg and the pH [3, 9] was 5.2. The “Concentration of melatonin in plasma” value ([4]; endogenous, circulates bound to albumin) was 0.01 to 0.3 ng/mL, the Bioavailability ([4]; in vivo) was “approximately 15%” and the “Clearance following first passage through the liver” value ([4]; in vivo) was 90%. The Half-life ([4]; in vivo) was 30 to 60 min.
